This note sets out measurements from patent US20250236616A1, “IMMUNOMODULATING AZALIDES” (Zoetis Services LLC, priority 2021, published 2025).

Marks after values point to notes of the source that are not given here.

The test system of test [1] is P. multocida 46572. Put plainly: In vivo mouse lung infection challenge model (murine efficacy), survival. As to conditions: P. multocida 46572 intranasal challenge; 20 mg/kg subcutaneous; harmonized relative to vehicle (−) and M9 (+) controls. Further details: species or system CD-1 female mice. The procedure:
The challenge organism was P. multocida 46572. Target challenge concentration was 5×10^2 CFU/mouse. Isolated colonies from overnight growth (37° C. with 5% CO2) on trypticase soy agar (TSA II) blood plates were transferred to room temperature Brain Heart Infusion Broth (BHIB). The broth culture was incubated 3.5-4 hours to approximately mid-log phase of growth, as measured by forward light scatter at 600 nm (OD600, 0.200). The culture was centrifuged to collect the bacterial pellet. The pellet was re-suspended in BHIB and adjusted to provide an approximate concentration of 2.7 log 10 colony forming units (CFU) in 0.04 mL at the highest concentration. The challenge inoculum concentration was confirmed by serial dilutions of the inoculum for CFU enumeration. On Day −5, CD −1 female mice were received. Mice were given standard rodent diet and water ad libitum. On Day 0, bacterial inoculum (0.04 mL) was administered to each mouse (n=36) intranasally. Compounds of the invention were dosed at 20 mg/kg (0.1 mL) in a buffered (˜pH 5.4) propylene glycol, monothioglycerol and water solution by subcutaneous injection. Animals were observed from Days 1-10. The study was terminated on Day 10. In addition, some treatment groups were sampled at 6, 24, and 48 hours post bacterial challenge for RNA sequence analysis of lung tissue.
The murine efficacy model (P.multocida challenge) was optimized, and the treatment group size was powered to be able to observe statistically significant improvement of survival to expected ranges for immunomodulatory compounds. The experimental design was a randomized complete block design. Mice were individually identified and treatment groups comingled within a cage, with every treatment group equally represented across cages. Mortality was the primary variable. Mortality data was analyzed using a generalized mixed model with fixed effect of treatment and random effect of block. Survival time was also analyzed using the SAS PHREG (survival analysis) procedure to examine whether there were significant differences between treatment groups and the control group. Numerous compounds of the invention and M9 (positive control) were tested in this model at a dose of 20 mg/kg (Table 3). Typical percent survival for no treatment control is in the range of 0-20% based on study to study variation in challenge inoculum and rate of infection. […] Mouse survival for M9 was about 90-100%, further supporting its residual antibacterial properties against the bacterial strain.

In test [2] the test system is IL-1β. Put plainly: Whole bovine blood assay, LPS-induced IL-1β (inhibition / overstimulation). As to conditions: drug concentration giving overstimulation (OS) of LPS-induced IL-1β. It counts as cell-based. In short, it runs like this: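 IL-1β was quantified by MSD U-Plex chemiluminescence in plasma and normalized to BCA total protein. Bovine blood was pretreated 4 h at 37 °C with compound dilutions before 18 h LPS challenge (1 μg/mL final). Rising IL-1β at high concentrations was recorded as overstimulation.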

Test [3] relates to TNF-α. Put plainly: Whole bovine blood assay, LPS-induced TNF-α. The conditions noted are these: fresh whole bovine blood, LPS stimulant. The format is cell-based. The gist of the method:
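Fresh heparinized bovine whole blood was preincubated with compound 4 h at 37 °C, then stimulated with LPS (final 1 μg/mL) for 18 h at 37 °C. Plasma TNF-α was quantified by MSD U-Plex chemiluminescent immunoassay, normalized to total protein (BCA), and IC50 taken for LPS-induced TNF-α inhibition.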

The test system of test [4] is BRD pathogens, M. haemolytica and P. multocida. In words: MIC screening panel, BRD pathogens (CLSI broth micro-dilution). It counts as cell-based. The conditions noted are these: at least one BRD pathogenic strain, top concentration 64 μg/mL. The gist of the method:
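MICs were determined by CLSI broth micro-dilution in cation-adjusted Mueller Hinton Broth at about 5×10^5 CFU/mL, with QC strains included. Incubation was 18-22 h at 35-37° C. in air, 5% CO2 or anaerobically (up to 48 h) depending on strain. BRD pathogens were first tested at a top concentration of 64 μg/mL in an eleven-point dilution series.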

Test [5] has as its system IL-6. In words: Whole bovine blood assay, LPS-induced IL-6. It counts as cell-based. As to conditions: fresh whole bovine blood, LPS stimulant; top drug concentration 250 μM.
The mark [6] stands for this setting: Bos taurus, top drug concentration 250 μM.

By minimal effective concentration is commonly meant the lowest level tested that produced the effect sought. Broadly, the IC50 is the concentration that gives 50% inhibition. Low readings indicate greater potency in that assay, high ones weaker potency in that assay. Turning to `CC[C@H]1OC(=O)[C@H](C)[C@@H](O)[C@H](C)[C@@H](O[C@@H]2O[C@H](C)C[C@H](N(C)S(=O)(=O)c3ccccc3)[C@H]2Oc2ccc(OC)c(OC)c2)[C@](C)(O)C[C@@H](C)CN[C@H](C)[C@@H](O)[C@]1(C)O` [Example A-8, N-((2S,3R,4S,6R)-3-(3,4-dimethoxyphenoxy)-2-(((2R,3S,4R,5R,8R,10R,11R,12S,13S,14R)-2-ethyl-3,4, 10, 13-tetrahydroxy-3,5,8,10,12,14-hexamethyl-15-oxo-1-oxa-6-azacyclopentadecan-11-yl)oxy)-6-methyltetrahydro-2H-pyran-4-yl)-N-methylbenzenesulfonamide], the “% Survival” value in test [1] is 20%. In test [2] (Bos taurus, 18 h, top concentration 250 μM), this compound gave a minimal effective concentration of 100 µM. This compound also gave an IC50 in test [3] (setting [6]) of 40 µM.
Regarding `CCCNC[C@]1(O)[C@H](C)O[C@@H](O[C@H]2[C@H](C)[C@@H](O[C@@H]3O[C@H](C)C[C@H](N(C)S(=O)(=O)c4ccc(C(F)(F)F)cc4)[C@H]3O)[C@](C)(O)C[C@@H](C)CN[C@H](C)[C@@H](O)[C@](C)(O)[C@@H](CC)OC(=O)[C@@H]2C)C[C@@]1(C)OC` [Example B-14, N-((2S,3R,4S,6R)-2-(((2R,3S,4R,5R,8R,10R,11R,12S,13S,14R)-2-ethyl-3,4,10-trihydroxy-13-(((2R,4R,5S,6S)-5-hydroxy-4-methoxy-4,6-dimethyl-5-((propylamino)methyl)tetrahydro-2H-pyran-2-yl)oxy)-3,5,8,10,12,14-hexamethyl-15-oxo-1-oxa-6-azacyclopentadecan-11-yl)oxy)-3-hydroxy-6-methyltetrahydro-2H-pyran-4-yl)-N-methyl-4-(trifluoromethyl)benzenesulfonamide], the “% Survival” value in test [1] came to 16%.
As to `CCCNC[C@]1(O)[C@H](C)O[C@@H](O[C@H]2[C@H](C)[C@@H](O[C@@H]3O[C@H](C)C[C@H](N(C)S(=O)(=O)N(C)Cc4ccc(Cl)cc4)[C@H]3O)[C@](C)(O)C[C@@H](C)CN[C@H](C)[C@@H](O)[C@](C)(O)[C@@H](CC)OC(=O)[C@@H]2C)C[C@@]1(C)OC` [Example B-41], the “% Survival” value in test [1] worked out at 52%. In test [2] (top concentration 250 μM), the minimal effective concentration was 6 µM.
Regarding `CCCNC[C@]1(O)[C@H](C)O[C@@H](O[C@H]2[C@H](C)[C@@H](O[C@@H]3O[C@H](C)C[C@H](N(C)S(=O)(=O)Nc4ccccc4)[C@H]3O)[C@](C)(O)C[C@@H](C)CN[C@H](C)[C@@H](O)[C@](C)(O)[C@@H](CC)OC(=O)[C@@H]2C)C[C@@]1(C)OC` [Example B-48, (2R,3S,4R,5R,8R,10R,11R,12S,13S, 14R)-2-ethyl-3,4,10-trihydroxy-13-[(2R,4R,5S,6S)-5-hydroxy-4-methoxy-4,6-dimethyl-5-(propylaminomethyl)oxan-2-yl]oxy-11-[(2S,3R,4S,6R)-3-hydroxy-6-methyl-4-[methyl(phenylsulfamoyl)amino]oxan-2-yl]oxy-3,5,8,10,12,14-hexamethyl-15-oxo-1-oxa-6-azacyclopentadecane], in test [1], the “% Survival” value is listed as 33%. The same compound displayed a minimal effective concentration in test [2] (Bos taurus, 18 h, dose of 500 μM (footnote ^)) of 32 µM. Moreover, the IC50 in test [3] (Bos taurus, dose of 500 μM (footnote ^)) is 25 µM.
In the case of `CCCNC[C@]1(O)[C@H](C)O[C@@H](O[C@H]2[C@H](C)[C@@H](O[C@@H]3O[C@H](C)C[C@H](N(C)S(=O)(=O)N(C)c4ccc(C(F)(F)F)cc4)[C@H]3O)[C@](C)(O)C[C@@H](C)CN[C@H](C)[C@@H](O)[C@](C)(O)[C@@H](CC)OC(=O)[C@@H]2C)C[C@@]1(C)OC` [Example B-113, (2R,3S,4R,5R,8R,10R,11R,12S,13S,14R)-2-ethyl-3,4, 10-trihydroxy-13-[(2R,4R,5S,6S)-5-hydroxy-4-methoxy-4,6-dimethyl-5-(propylaminomethyl)oxan-2-yl]oxy-11-[(2S,3R,4S,6R)-3-hydroxy-6-methyl-4-[methyl-[methyl-[4-(trifluoromethyl)phenyl]sulfamoyl]amino]oxan-2-yl]oxy-3,5,8, 10, 12, 14-hexamethyl-1-oxa-6-azacyclopentadecan-15-one], in test [1], the “% Survival” value came to 59%. The compound further came in with an IC50 in test [3] (setting [6]) of 7 µM.
Consider `CCCNC[C@@]1(O)[C@@H](C)OC(O[C@H]2[C@H](C)[C@@H](O[C@@H]3O[C@H](C)C[C@H](N(C)S(=O)(=O)c4ccccc4)[C@H]3Oc3ccccn3)[C@](C)(O)C[C@@H](C)CN[C@H](C)[C@@H](O)[C@](C)(O)[C@@H](CC)OC(=O)[C@@H]2C)C[C@]1(C)OC` (stereo partly shown) [Example B-130], for which the “% Survival” value in test [1] amounted to 42%. In test [2] (top concentration 250 μM), this compound yielded a minimal effective concentration of 6 µM.
With `CC(=O)O.CCCN1C[C@H](C)C[C@@](C)(O)[C@H](O[C@@H]2O[C@H](C)C[C@H](N(C)S(=O)(=O)Nc3ccc(C(F)(F)F)cc3)[C@H]2O)[C@@H](C)[C@H](O[C@H]2C[C@@](C)(OC)[C@](O)(CN3CCCCC3)[C@H](C)O2)[C@@H](C)C(=O)O[C@H](CC)[C@@](C)(O)[C@H](O)[C@H]1C` [Example C-58, (2R,3S,4R,5R,8R,10R,11R,12S,13S,14R)-2-ethyl-3,4,10-trihydroxy-13-[(2R,4R,5S,6S)-5-hydroxy-4-methoxy-4,6-dimethyl-5-(piperidin-1-ylmethyl)oxan-2-yl]oxy-11-[(2S,3R,4S,6R)-3-hydroxy-6-methyl-4-[methyl-[[4-(trifluoromethyl)phenyl]sulfamoyl]amino]oxan-2-yl]oxy-3,5,8, 10, 12,14-hexamethyl-15-oxo-6-propyl-1-oxa-6-azacyclopentadecane, acetic acid], in test [4] (Table C), the “MIC flag (*) for BRD pathogenic strains” value was “C-58* (MIC ≤64 μg/mL for at least one BRD pathogenic strain)”. The values for the IC50 in test [5] and in test [3] (top drug concentration 250 μM) were 13 µM and 9 µM, respectively. Also, in test [2] (top concentration 250 μM), the minimal effective concentration amounted to 12 µM.
Consider “(2R,3S,4R,5R,8R,10R,11R,12S,13S,14R)-2-ethyl-3,4,10-trihydroxy-13-[(2R,4R,5S,6S)-5-hydroxy-4-methoxy-4,6-dimethyl-5-[(3,3,3-trifluoropropylamino)methyl]oxan-2-yl]oxy-11-[(2S,3R,4S,6R)-3-hydroxy-6-methyl-4-[methyl-[[4-(trifluoromethyl)phenyl]sulfamoyl]amino]oxan-2-yl]oxy-3,5,8, 10, 12,14-hexamethyl-15-oxo-1-oxa-6-azacyclopentadecane [Example B-65]”, for which the “MIC flag (*) for BRD pathogenic strains” value in test [4] (Table B) was “B-65* (MIC ≤64 μg/mL for at least one BRD pathogenic strain)”. The results for the IC50 in test [5] and in test [3] (top drug concentration 250 μM) were 15 µM and 9 µM, respectively. Moreover, in test [2] (top concentration 250 μM), the minimal effective concentration was 6 µM.
Consider “(2R,3S,4R,5R,8R,10R,11R, 12S, 13S, 14R)-2-ethyl-11-[(2R,3S,4R,6S)-4-[(3-fluorophenyl) sulfamoyl-methylamino]-3-hydroxy-6-methyloxan-2-yl]oxy-3,4, 10-trihydroxy-13-[(2R,4R,5S,6S)-5-hydroxy-4-methoxy-4,6-dimethyl-5-(piperidin-1-ylmethyl)-oxan-2-yl]oxy-3,5,8,10, 12,14-hexamethyl-15-oxo-1-oxa-6-azacyclopentadecane [Example C-24]”, for which the “MIC flag (*) for BRD pathogenic strains” value in test [4] (Table C) was “C-24* (MIC ≤64 μg/mL for at least one BRD pathogenic strain)”. The figures for the concentration for half-maximal inhibition (IC50) in test [5] and in test [3] (top drug concentration 250 μM) were 25 µM and 16 µM, respectively. Further, in test [2] (top concentration 250 μM), the minimal effective concentration amounted to 3 µM.
